Source: US8158820B2, “Compounds” (AstraZeneca AB, priority 2003, dated 2012)

Each molecule was assayed against T1, CRTh2 (Homo sapiens, UniProt Q9Y5Y4) (assay: Ligand Binding Assay ([3H]PGD2, SPA beads, HEK cell membranes)). Conditions: [3H]PGD2 binding to membranes of HEK cells expressing rhCRTh2/Gα16.
T1 construct: expressed in transfected cells; host or cells: HEK cells (stably transfected, geneticin selection; membranes prepared)
T1 sequence (Q9Y5Y4 1-395): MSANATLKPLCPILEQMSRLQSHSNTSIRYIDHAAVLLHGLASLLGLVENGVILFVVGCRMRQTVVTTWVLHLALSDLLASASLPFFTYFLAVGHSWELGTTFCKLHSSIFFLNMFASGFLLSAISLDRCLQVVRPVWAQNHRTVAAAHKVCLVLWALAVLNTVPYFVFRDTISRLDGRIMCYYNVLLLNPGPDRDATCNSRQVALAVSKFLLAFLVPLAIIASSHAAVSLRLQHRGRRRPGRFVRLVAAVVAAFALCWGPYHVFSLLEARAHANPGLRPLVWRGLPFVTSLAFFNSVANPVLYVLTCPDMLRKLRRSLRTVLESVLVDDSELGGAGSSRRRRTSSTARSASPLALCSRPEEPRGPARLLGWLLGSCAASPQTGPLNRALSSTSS
Protocol: [^3H]PGD2 was purchased from Perkin Elmer Life Sciences with a specific activity of 100-210 Ci/mmol. All other chemicals were of analytical grade.
HEK cells expressing rhCRTh2/Gα16 were routinely maintained in DMEM containing 10% Foetal Bovine Serum (HyClone), 1 mg/ml geneticin, 2 mM L-glutamine and 1% non-essential amino acids. For the preparation of membranes, the adherent transfected HEKcells were grown to confluence in two layer tissue culture factories (Fisher, catalogue number TKT-170-070E). Maximal levels of receptor expression were induced by addition of […] sodium butyrate for the last 18 hours of culture. The adherent cells were washed once with phosphate buffered saline (PBS, 50 ml per cell factory) and detached by the addition of 50 ml per cell factory of ice-cold membrane homogenisation buffer [20 mM HEPES (pH 7.4), 0.1 mM dithiothreitol, 1 mM EDTA, 0.1 mM phenyl methyl sulphonyl fluoride and 100 μg/ml bacitracin]. […] The final pellet was re-suspended in 4 ml of membrane homogenisation buffer per cell factory used and the protein content determined. […]
All assays were performed in Corning clear bottomed, white 96-well NBS plates (Fisher). […] (The optimum coating concentrations were determined for each batch of membranes) The beads were pelleted by centrifugation (800×g for 7 minutes at 4° C.), washed once with assay buffer (50 mM HEPES pH 7.4 containing 5 mM magnesium chloride) and finally re-suspended in assay buffer at a bead concentration of 10 mg/ml.
Each assay contained 20 μl of 6.25 nM [^3H]PGD2, 20 μl membrane saturated SPA beads both in assay buffer and 10 μl of compound solution or 13,14-dihydro-15-keto prostaglandin D2 (DK-PGD2, for determination of non-specific binding, Cayman chemical company). […] The assay plate was incubated at room temperature for 2 hours and counted on a Wallac Microbeta liquid scintillation counter (1 minute per well).
For `CS(=O)(=O)c1ccc(-c2cc(Cl)ccc2OCC(=O)O)cc1` [Example 9, {[5-Chloro-4′-(methylsulfonyl)biphenyl-2-yl]oxy}acetic acid], the IC50 was 39.8 nM.
`CN(c1ncc(-c2cc(Cl)ccc2OCC(=O)O)cn1)S(C)(=O)=O` [Example 25, (4-Chloro-2-{2-[methyl(methylsulfonyl)amino]pyrimidin-5-yl}phenoxy)acetic acid] was tested, and the IC50 was 10 nM.
Molecule `CNS(=O)(=O)c1ccc(-c2cc(C(F)(F)F)ccc2OCC(=O)O)cc1` [Example 133, [[4′-[(Methylamino)sulfonyl]-5-(trifluoromethyl)[1,1′-biphenyl]-2-yl]oxy]-acetic acid] has an IC50 of 6.31 nM.
